# System: collagen-induced arthritis (CIA) rats
# Experiment: Collagen-induced arthritis animal model
# Assay type: in vivo, Wistar rats
# Details: for Hind paw swelling inhibition (%): 38th day
# Excerpt: In order to determine whether or not the peptide according to the present invention is effective in treating rheumatoid arthritis in vivo, the effect of treating arthritis thereof was detected in a collagen-induced arthritis animal model. For this purpose, female Wistar rats (105-135 g, n=67) were purchased from Harlan Co. Ltd. (Indianapolis, IN, USA). All rats were bred in a pathogen-free environment and sterilized standard rat feed (Harlan Co. Ltd, USA) and water were freely fed to the rats. Animal experiments were conducted with the approval of the Institutional Animal Care and Use Committee (IACUC) of Seoul National University. Collagen-induced arthritis was induced in a known manner (Nishikawa et al., Arthritis and rheumatism. 2003; 48:2670-81).
# Specifically, 500 μg of bovine collagen type II was injected along with a mixture of 0.5 mL of 0.1 M acetic acid and 0.5 mL of Freund's incomplete adjuvant into rat muscle. On the 7th day, 0.5 mL of 0.1 M acetic acid and 0.5 mL of Freund's incomplete adjuvant were further inoculated along with 250 μg of bovine collagen type II to produce collagen-induced arthritis (CIA) rats. The rats were classified into a CIA-induced group (n=10), a CIA-induced group injected with a low concentration of the peptide of SEQ ID NO: 1 (LD AIP, 15 mg/kg, n=10), a CIA-induced group injected with a high concentration of the peptide of SEQ ID NO: 1 (HD AIP, 30 mg/kg, n=10), a CIA-induced group injected with etanercept (Enbrel) (10 mg/kg, n=10), and a normal group (n=6). From 28 days after the first collagen injection, the peptide of SEQ ID NO: 1 was injected subcutaneously into the back of the neck twice a week over 4 weeks. Etanercept was injected intraperitoneally three times a week over 4 weeks. Swelling of both hind paws was measured twice using a plethysmometer (LE7500 N, IWOO Scientific Corporation, KOREA) on day 22, 29, 31, 35, 38, 42, 45, 49, 52, and 56. The plethysmometer was used after calibration to a weight of 3 mL. The measured area was marked by drawing a line, and measurement was conducted adjacent to the ankle. Hind paw swelling increase (%) and hind paw swelling inhibition (%) were calculated using the following equations.
# In order to observe the degree of bone damage in the hind paw, microcomputed tomography (micro-CT) was performed using a SkyScan 1172 (SkyScan, Aartselaar, Belgium). The total volume (TV; mm^3), bone volume (BV; mm^3) and bone volume fraction (BV/TV; %) were analyzed using CTAn software. On the 57th day, rats were sacrificed and subjected to histological analysis. Both hind paws and joints were collected, fixed in 10% buffered formalin, and demineralized in 30% citrate-buffered formic acid at 4° ° C. for 3 days. Paraffin blocks were produced, sliced into sections with a thickness of 4 μm and stained with hematoxylin and eosin (H&E), and then the pathological score was evaluated with an optical microscope. The joint inflammation index was measured based on the following criteria (Shiozawa et al., J Clin Invest. 1997; 99 (6):1210-1216). 0, normal synovium; 1, synovial membrane hypertrophy and cell infiltrates; 2, pannus and cartilage erosion; 3, major erosion of cartilage and subchondral bone; and 4, loss of joint integrity and ankylosis.
# The rats were sacrificed and systemic blood was collected, and the concentrations of TNF-α and IL-6 in the blood were measured with an ELISA kit (R&D, Minneapolis, MN, USA).
compound,measurement,setting,value
C[C@@H](O)[C@H](NC(=O)[C@H](CO)NC(=O)[C@H](CS)NC(=O)[C@H](CCCCN)NC(=O)CN)C(=O)N[C@@H](CCCNC(=N)N)C(=O)NCC(=O)N[C@@H](CCCNC(=N)N)C(=O)N[C@@H](CCCCN)C(=O)N[C@@H](CS)C(=O)N[C@@H](CS)C(=O)N[C@@H](CCCNC(=N)N)C(=O)N[C@@H](CCCNC(=N)N)C(=O)N[C@@H](CCCCN)C(=O)N[C@@H](CCCCN)C(=O)O [SEQ ID NO: 1],Concentration of IL-6 in blood,"ELISA, high concentration of peptide or etanercept, CIA-induced group 109 pg/ml",35.2 pg/mL
same,Concentration of TNF-α in blood,"ELISA, high concentration of peptide or etanercept, CIA-induced group 128 pg/ml",40.3 pg/mL
same,Bone damage in hind paw (micro-CT),FIG. 3A,bone tissue was preserved
same,"Microscopic observation of joint tissues (inflammation, H&E)",FIG. 4A,decrease in inflammation in a concentration-dependent manner
same,Hind paw swelling inhibition (%),high concentration (30 mg/kg),35%
same,Bone surface area adjusted to BV (BS/BV),"high concentration, micro-CT",low
same,Bone volume (BV),"high concentration, micro-CT",high
same,Bone volume/tissue volume (BV/TV),"high concentration, micro-CT",high
same,Trabecular thickness (Tb.Th),"high concentration, micro-CT",high
same,Hind paw swelling inhibition (%),low concentration (15 mg/kg),32%
same,Hind paw swelling (%),"peptide 15 or 30 mg/kg subcutaneously twice a week, etanercept 10 mg/kg intraperitoneally three times a week, 4 weeks",decrease in hind paw swelling (%) in a concentration-dependent manner
same,Hind paw swelling (%),peptide at high concentration (30 mg/kg),decrease in hind paw swelling (%) between 38 and 49 days (P<0.05)
same,Inflammation index,"score 0-4, CIA-induced group 3.3±0.67",1.5±1.17

# Source: US12486303B2, “Use of peptide for inhibiting functions and expressions of multiple disease biomarkers” (NIBEC CO., LTD., priority 2018, dated 2025)
